Tests used:
Format in all cases: cell-based
[1] = target: T1, human TLR7 (Homo sapiens, UniProt Q9NYK1); test: TLR7 inhibition reporter assay (HEK-Blue cells, SEAP reporter, gardiquimod stimulation); settings: HEK-Blue cells overexpressing human TLR7, SEAP reporter, gardiquimod 7.5 μM
T1 construct: host or cells: HEK-Blue cells (HEK293-derived reporter line)
T1 sequence (Q9NYK1 27-1049): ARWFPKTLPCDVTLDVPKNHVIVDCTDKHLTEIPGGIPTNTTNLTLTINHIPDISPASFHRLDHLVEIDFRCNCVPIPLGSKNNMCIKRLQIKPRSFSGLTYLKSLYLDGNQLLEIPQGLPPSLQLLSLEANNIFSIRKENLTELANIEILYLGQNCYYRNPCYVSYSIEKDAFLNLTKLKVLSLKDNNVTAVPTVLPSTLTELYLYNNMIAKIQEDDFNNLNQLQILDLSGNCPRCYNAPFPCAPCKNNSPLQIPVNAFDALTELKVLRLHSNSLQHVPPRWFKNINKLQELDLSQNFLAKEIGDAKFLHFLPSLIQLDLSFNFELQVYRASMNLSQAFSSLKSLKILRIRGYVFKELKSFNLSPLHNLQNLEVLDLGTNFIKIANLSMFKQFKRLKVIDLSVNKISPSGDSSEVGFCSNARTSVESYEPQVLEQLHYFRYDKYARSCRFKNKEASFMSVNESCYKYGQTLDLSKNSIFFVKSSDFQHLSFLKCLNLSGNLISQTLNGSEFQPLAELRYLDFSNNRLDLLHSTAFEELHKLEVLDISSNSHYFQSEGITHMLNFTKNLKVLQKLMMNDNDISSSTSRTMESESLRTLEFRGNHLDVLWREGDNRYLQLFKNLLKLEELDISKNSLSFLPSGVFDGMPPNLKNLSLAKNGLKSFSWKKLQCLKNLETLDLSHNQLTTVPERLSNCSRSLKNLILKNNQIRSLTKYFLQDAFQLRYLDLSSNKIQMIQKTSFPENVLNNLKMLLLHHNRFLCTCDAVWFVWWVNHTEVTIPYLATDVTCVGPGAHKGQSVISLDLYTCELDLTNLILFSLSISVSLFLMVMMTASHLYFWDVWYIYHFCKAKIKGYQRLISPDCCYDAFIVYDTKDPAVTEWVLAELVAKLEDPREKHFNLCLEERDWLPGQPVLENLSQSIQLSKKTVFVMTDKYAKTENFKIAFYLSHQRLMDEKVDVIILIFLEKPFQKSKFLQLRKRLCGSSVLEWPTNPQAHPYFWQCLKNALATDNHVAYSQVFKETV
Outline: (§1)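 After 22 h at 37 °C, SEAP secretion was measured from human TLR7-, TLR8- or TLR9-expressing HEK-Blue reporter cells given compound (0.05 nM–50 μM) 30 min before agonist: 7.5 μM gardiquimod, 15.9 μM R848 or 5 nM ODN2006 respectively. Percent inhibition referenced to agonist-plus-DMSO and known-inhibitor wells.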

[2] = target: T2, human TLR8 (Homo sapiens, UniProt Q9NR97); test: TLR8 inhibition reporter assay (HEK-Blue cells, SEAP reporter, R848 stimulation); settings: HEK-Blue cells overexpressing human TLR8, SEAP reporter, R848 15.9 μM
T2 construct: host or cells: HEK-Blue cells (HEK293-derived reporter line)
T2 sequence (Q9NR97 27-1041): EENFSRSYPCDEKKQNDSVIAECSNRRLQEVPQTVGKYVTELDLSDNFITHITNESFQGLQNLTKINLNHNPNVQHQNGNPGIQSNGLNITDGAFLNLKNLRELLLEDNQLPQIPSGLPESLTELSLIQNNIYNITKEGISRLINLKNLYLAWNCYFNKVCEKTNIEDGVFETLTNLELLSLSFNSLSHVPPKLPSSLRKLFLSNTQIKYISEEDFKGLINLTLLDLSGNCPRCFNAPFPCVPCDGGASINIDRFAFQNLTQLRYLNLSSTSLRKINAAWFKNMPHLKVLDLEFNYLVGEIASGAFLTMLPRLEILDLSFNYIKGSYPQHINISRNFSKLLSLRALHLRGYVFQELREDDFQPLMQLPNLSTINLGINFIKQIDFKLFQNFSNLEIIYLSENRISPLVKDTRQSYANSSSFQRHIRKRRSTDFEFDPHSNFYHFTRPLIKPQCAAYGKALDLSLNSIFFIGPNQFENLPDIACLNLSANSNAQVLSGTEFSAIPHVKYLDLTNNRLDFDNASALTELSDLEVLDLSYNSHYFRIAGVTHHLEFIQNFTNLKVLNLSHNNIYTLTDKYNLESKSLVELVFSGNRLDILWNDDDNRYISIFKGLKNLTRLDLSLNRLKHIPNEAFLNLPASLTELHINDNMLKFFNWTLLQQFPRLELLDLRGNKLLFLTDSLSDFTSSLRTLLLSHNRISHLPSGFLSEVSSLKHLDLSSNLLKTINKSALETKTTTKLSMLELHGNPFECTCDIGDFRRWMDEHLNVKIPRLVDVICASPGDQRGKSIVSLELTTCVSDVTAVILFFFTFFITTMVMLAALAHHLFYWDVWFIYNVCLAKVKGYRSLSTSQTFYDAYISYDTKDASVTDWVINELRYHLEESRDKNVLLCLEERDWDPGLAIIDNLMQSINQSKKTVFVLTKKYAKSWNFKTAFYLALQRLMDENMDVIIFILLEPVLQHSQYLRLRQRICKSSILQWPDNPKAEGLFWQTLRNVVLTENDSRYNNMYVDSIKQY
Outline: as §1

[3] = target: T3, human TLR9 (Homo sapiens, UniProt Q9NR96); test: TLR9 inhibition reporter assay (HEK-Blue cells, SEAP reporter, ODN2006 stimulation); settings: HEK-Blue cells overexpressing human TLR9, SEAP reporter, ODN2006 5 nM
T3 construct: host or cells: HEK-Blue cells (HEK293-derived reporter line)
T3 sequence (Q9NR96 26-1032): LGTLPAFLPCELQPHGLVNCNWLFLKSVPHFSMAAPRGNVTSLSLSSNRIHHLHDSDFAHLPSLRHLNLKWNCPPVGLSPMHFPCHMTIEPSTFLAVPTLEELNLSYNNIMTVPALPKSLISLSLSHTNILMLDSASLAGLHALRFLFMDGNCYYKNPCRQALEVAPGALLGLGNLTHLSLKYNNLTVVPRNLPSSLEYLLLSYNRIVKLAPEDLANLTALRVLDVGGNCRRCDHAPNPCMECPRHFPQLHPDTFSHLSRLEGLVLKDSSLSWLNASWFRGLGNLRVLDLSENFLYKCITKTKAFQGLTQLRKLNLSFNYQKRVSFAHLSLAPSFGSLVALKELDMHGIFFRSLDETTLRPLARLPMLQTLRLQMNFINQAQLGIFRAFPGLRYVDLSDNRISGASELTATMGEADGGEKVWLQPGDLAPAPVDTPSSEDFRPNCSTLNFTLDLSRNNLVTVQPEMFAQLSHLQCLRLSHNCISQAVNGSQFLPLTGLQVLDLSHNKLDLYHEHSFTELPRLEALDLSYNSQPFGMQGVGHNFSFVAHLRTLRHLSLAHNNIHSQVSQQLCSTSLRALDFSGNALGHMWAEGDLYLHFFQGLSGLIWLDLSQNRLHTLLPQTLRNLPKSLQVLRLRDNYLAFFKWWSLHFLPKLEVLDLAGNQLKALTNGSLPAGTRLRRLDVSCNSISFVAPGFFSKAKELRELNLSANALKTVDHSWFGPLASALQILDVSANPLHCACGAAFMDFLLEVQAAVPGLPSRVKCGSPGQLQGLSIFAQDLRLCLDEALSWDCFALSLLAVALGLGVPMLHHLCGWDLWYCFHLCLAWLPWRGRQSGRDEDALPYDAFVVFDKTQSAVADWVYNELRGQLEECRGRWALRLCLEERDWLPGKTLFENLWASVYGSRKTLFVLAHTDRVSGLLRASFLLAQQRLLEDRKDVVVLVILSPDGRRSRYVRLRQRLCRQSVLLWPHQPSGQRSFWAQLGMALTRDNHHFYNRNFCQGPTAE
Outline: as §1

Structure (SMILES) | IC50 [1] | IC50 [2] | IC50 [3]
Cc1cc2nccn2cc1-c1[nH]c2ccc(C3CCN(CC(=O)N(C)C)CC3)cc2c1C(C)C [Example 431, 2-(4-(3-isopropyl-2-(7-methylimidazo[1,2-a]pyridin-6-yl)-1H-indol-5-yl)piperidin-1-yl)-N,N-dimethylacetamide] | < 100 nM | 100 to 1000 nM | 1000 to 50000 nM
Cc1cc(-c2[nH]c3ccc(C4CCN(CC(=O)N(C)C)CC4)cc3c2C(C)C)cc2ocnc12 [Example 291, 2-(4-(3-isopropyl-2-(4-methylbenzo[d]oxazol-6-yl)-1H-indol-5-yl)piperidin-1-yl)-N,N-dimethylacetamide] | < 100 nM | < 100 nM | 1000 to 50000 nM
CNC(=O)CN1CCC(c2ccc3[nH]c(-c4cnc5ncnn5c4)c(C(C)C)c3c2)CC1 [Example 423, 2-(4-(2-([1,2,4]triazolo[1,5-a]pyrimidin-6-yl)-3-isopropyl-1H-indol-5-yl)piperidin-1-yl)-N-methylacetamide] | < 100 nM | < 100 nM | 1000 to 50000 nM
CCc1c(-c2ccnc3[nH]ncc23)[nH]c2ccc(C3CCN(Cc4c(C)noc4C)CC3)cc12 [Example 893, 4-((4-(3-ethyl-2-(1H-pyrazolo[3,4-b]pyridin-4-yl)-1H-indol-5-yl)piperidin-1-yl)methyl)-3,5-dimethylisoxazole] | 100 to 1000 nM | < 100 nM | 1000 to 50000 nM
Cc1cc2nnnn2cc1-c1[nH]c2ccc(C3CCN(C4COC4)CC3)cc2c1C(C)C [Example 742, 6-(3-isopropyl-5-(1-(oxetan-3-yl)piperidin-4-yl)-1H-indol-2-yl)-7-methyltetrazolo[1,5-a]pyridine] | < 100 nM | 100 to 1000 nM | 1000 to 50000 nM
CCCN1CCC(c2ccc3[nH]c(-c4cc(C)c5ncn(C)c5c4)c(C(C)C)c3c2)CC1 [Example 954, 6-(3-isopropyl-5-(1-propylpiperidin-4-yl)-1H-indol-2-yl)-1,4-dimethyl-1H-benzo[d]imidazole] | < 100 nM | < 100 nM | 100 to 1000 nM
CCc1c(-c2ccc3ncc(C)n3n2)[nH]c2ccc(C3CCNCC3)cc12 [Example 103, 6-(3-ethyl-5-(piperidin-4-yl)-1H-indol-2-yl)-3-methylimidazo[1,2-b]pyridazine] | 1000 to 50000 nM | 100 to 1000 nM | 1000 to 50000 nM
Cc1cn2c(C)cc(-c3[nH]c4ccc(C5CCN(CC(=O)N(C)C)CC5)cc4c3C(C)C)cc2n1 [Example 353, 2-(4-(2-(2,5-dimethylimidazo[1,2-a]pyridin-7-yl)-3-isopropyl-1H-indol-5-yl)piperidin-1-yl)-N,N-dimethylacetamide] | 100 to 1000 nM | 1000 to 50000 nM | 100 to 1000 nM
CC(C)c1c(-c2ccc3nnnn3c2)[nH]c2ccc(C3CCN(CC(=O)N(C)C)CC3)cc12 [Example 301, 2-(4-(3-isopropyl-2-(tetrazolo[1,5-a]pyridin-6-yl)-1H-indol-5-yl)piperidin-1-yl)-N,N-dimethylacetamide] | < 100 nM | 100 to 1000 nM | 1000 to 50000 nM
CN(C)CC(=O)N1CCC(c2ccc3[nH]c(-c4ccnc5[nH]ncc45)c(CC(F)F)c3c2)CC1 [Example 517, 1-(4-(3-(2,2-difluoroethyl)-2-(1H-pyrazolo[3,4-b]pyridin-4-yl)-1H-indol-5-yl)piperidin-1-yl)-2-(dimethylamino)ethan-1-one] | 100 to 1000 nM | < 100 nM | 100 to 1000 nM
Cc1cc(-c2[nH]c3ccc(C4CCN(C(=O)CN(C)C)CC4)cc3c2C(C)C)cc2nccn12 [Example 500, 2-(dimethylamino)-1-(4-(3-isopropyl-2-(5-methylimidazo[1,2-a]pyridin-7-yl)-1H-indol-5-yl)piperidin-1-yl)ethan-1-one] | 100 to 1000 nM | 100 to 1000 nM | 100 to 1000 nM
COc1cc(-c2[nH]c3ccc(C4CCN(C5COC5)CC4)cc3c2C(C)C)cc2nccn12 [Example 712, 7-(3-isopropyl-5-(1-(oxetan-3-yl)piperidin-4-yl)-1H-indol-2-yl)-5-methoxyimidazo[1,2-a]pyridine] | 100 to 1000 nM | 100 to 1000 nM | 100 to 1000 nM
Cc1nn2ccc(-c3[nH]c4ccc(C5CCN(CC(=O)N(C)C)CC5)cc4c3C(C)C)nc2c1F [Example 400, 2-(4-(2-(3-fluoro-2-methylpyrazolo[1,5-a]pyrimidin-5-yl)-3-isopropyl-1H-indol-5-yl)piperidin-1-yl)-N,N-dimethylacetamide] | > 3130 nM | 1000 to 50000 nM | 1000 to 50000 nM
CC(C)c1c(-c2ccnc3[nH]ncc23)[nH]c2ccc(C3CCNCC3F)cc12 (stereo not drawn) [Example 172, 4-(5-(3-fluoropiperidin-4-yl)-3-isopropyl-1H-indol-2-yl)-1H-pyrazolo[3,4-b]pyridine] | < 100 nM | < 100 nM | 1000 to 50000 nM
CC(C)c1c(-c2ccc3[nH]ncc3c2)[nH]c2ccc(C3CCNCC3)cc12 [Example 169, 5-(3-isopropyl-5-(piperidin-4-yl)-1H-indol-2-yl)-1H-indazole] | 100 to 1000 nM | 1000 to 50000 nM | 1000 to 50000 nM
